Earlier results as cited in patent publication US7189385B2, “Tooth whitening compositions” (Discus Dental Impressions, Inc., priority 1997, dated 2007).

Details: listed as GRAS, 21 CFR 184.1901

For CC(=O)OCC(COC(C)=O)OC(C)=O [Glyceryl triacetate], the toxicity is given as “extremely low order of toxicity”.
